This passage reports inhibition and Kd results from ChEMBL document CHEMBL4507258 (2021).

SMILES strings stand for the structures.

Data set [1] deals with Sodium-dependent noradrenaline transporter (Homo sapiens) (UniProt P23975). The following applies: Compound concentration 10.0 uM.
Data set [2] addresses Alpha-2A adrenergic receptor (Homo sapiens) (UniProt P08913). The conditions noted are these: Compound concentration 10.0 uM.
In data set [3] the target is 5-hydroxytryptamine receptor 1D (Homo sapiens) (UniProt P28221). The conditions noted are these: Compound concentration 10.0 uM.
The target in data set [4] is Histamine H2 receptor (Homo sapiens) (UniProt P25021). Description: Histamine H2 receptor CEREP ligand profiling. The conditions noted are these: Compound concentration 10.0 uM.
The target of data set [5] is Calcitonin gene-related peptide type 1 receptor (Homo sapiens) (UniProt Q16602). Description: Calcitonin gene-related peptide CEREP ligand profiling. The conditions noted are these: Compound concentration 10.0 uM.
Data set [6] deals with Neurotensin receptor (Homo sapiens) (UniProt O95665+P30989). Description: Neurotensin receptor (h) CEREP ligand profiling. The format is protein assay. The conditions noted are these: Compound concentration 10.0 uM.
For data set [7], the target named is Tumor necrosis factor (Homo sapiens) (UniProt P01375). As to the kind of experiment: Tumor necrosis factor-alpha CEREP ligand profiling. The conditions noted are these: Compound concentration 10.0 uM.
The target in data set [8] is T1, 5-hydroxytryptamine receptor 1A (Homo sapiens) (UniProt P08908).
T1 sequence (whole entry): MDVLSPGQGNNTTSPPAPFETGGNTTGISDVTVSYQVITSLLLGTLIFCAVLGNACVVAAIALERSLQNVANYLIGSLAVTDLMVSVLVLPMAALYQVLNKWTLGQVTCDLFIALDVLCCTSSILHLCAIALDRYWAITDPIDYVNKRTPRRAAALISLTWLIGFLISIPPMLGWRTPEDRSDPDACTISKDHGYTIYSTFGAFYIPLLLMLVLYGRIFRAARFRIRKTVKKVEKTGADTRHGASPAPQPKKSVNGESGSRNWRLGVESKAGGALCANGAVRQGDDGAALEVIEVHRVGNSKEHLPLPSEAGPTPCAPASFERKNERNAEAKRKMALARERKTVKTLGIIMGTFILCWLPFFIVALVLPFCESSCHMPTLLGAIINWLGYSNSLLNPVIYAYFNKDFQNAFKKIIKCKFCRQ
As to the kind of experiment: 5-Hydroxytryptamine1A (h) CEREP ligand profiling. The following applies: Compound concentration 10.0 uM.

The target in data set [9] is Serine/threonine-protein kinase DCLK1 (Homo sapiens, UniProt O15075). Description: Inhibition of DCLK1 at compound concentration of 10.0 uM using the ScanMax (DiscoverX).
Data set [10] concerns the target Calcium-activated potassium channel (Homo sapiens) (UniProt Q92952+Q9UGI6+Q12791+O15554+Q9H2S1+A8MYU2). Description: K+ channel (Ca2+-dependent) CEREP ligand profiling. It counts as protein assay. The conditions noted are these: Compound concentration 10.0 uM.
Data set [11] addresses Endothelin-1 receptor (Homo sapiens) (UniProt P25101). The conditions noted are these: Compound concentration 10.0 uM.
The target in data set [12] is Type-2 angiotensin II receptor (Homo sapiens) (UniProt P50052). As to the kind of experiment: Angiotensin AT2 receptor (h) CEREP ligand profiling. The conditions noted are these: Compound concentration 10.0 uM.
Data set [13] deals with T2, D(4) dopamine receptor (Homo sapiens) (UniProt P21917).
T2 sequence (whole entry): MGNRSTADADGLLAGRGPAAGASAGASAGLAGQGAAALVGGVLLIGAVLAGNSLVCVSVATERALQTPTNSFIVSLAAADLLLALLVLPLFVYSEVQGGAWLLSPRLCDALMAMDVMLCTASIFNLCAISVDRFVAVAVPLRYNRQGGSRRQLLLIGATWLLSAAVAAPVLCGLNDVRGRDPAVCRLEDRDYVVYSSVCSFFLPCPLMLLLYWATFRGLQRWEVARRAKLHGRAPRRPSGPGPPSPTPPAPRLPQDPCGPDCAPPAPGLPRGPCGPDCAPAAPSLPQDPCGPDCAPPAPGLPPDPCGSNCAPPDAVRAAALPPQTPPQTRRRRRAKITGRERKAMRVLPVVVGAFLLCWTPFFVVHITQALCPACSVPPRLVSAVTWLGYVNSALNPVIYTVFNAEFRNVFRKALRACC
As to the kind of experiment: Dopamine D4 receptor (h) CEREP ligand profiling. The following applies: Compound concentration 10.0 uM.

Data set [14] addresses 5-hydroxytryptamine receptor 2C (Homo sapiens) (UniProt P28335). Description: 5-Hydroxytryptamine2C (h) CEREP ligand profiling. The following applies: Compound concentration 10.0 uM.
The target in data set [15] is Type-1 angiotensin II receptor (Homo sapiens) (UniProt P30556). Description: Angiotensin AT1 receptor (h) CEREP ligand profiling. The conditions noted are these: Compound concentration 10.0 uM.
Data set [16] addresses Cannabinoid receptor 2 (Homo sapiens) (UniProt P34972). Description: Cannabinoid CB2 receptor (h) CEREP ligand profiling. The conditions noted are these: Compound concentration 10.0 uM.
In data set [17] the target is Beta-1 adrenergic receptor (Homo sapiens) (UniProt P08588). Description: beta1-adrenoceptor (h) CEREP ligand profiling. The conditions noted are these: Compound concentration 10.0 uM.
Data set [18] concerns the target Neuropeptide Y receptor type 2 (Homo sapiens) (UniProt P49146). As to the kind of experiment: Y2 receptor CEREP ligand profiling. The following applies: Compound concentration 10.0 uM.
The target of data set [19] is Beta-2 adrenergic receptor (Homo sapiens) (UniProt P07550). Description: beta2-adrenoceptor (h) CEREP ligand profiling. The conditions noted are these: Compound concentration 10.0 uM.
Data set [20] deals with Sodium-dependent noradrenaline transporter (Homo sapiens) (UniProt P23975). Description: Norepinephrine uptake CEREP ligand profiling. The following applies: Compound concentration 10.0 uM.
Data set [21] deals with Bombesin receptor (Homo sapiens) (UniProt P28336+P32247+P30550). As to the kind of experiment: Bombesin receptor CEREP ligand profiling. The format is protein assay. The following applies: Compound concentration 10.0 uM.
For data set [22], the target named is Sigma non-opioid intracellular receptor 1 (Homo sapiens, UniProt Q99720). Description: sigma-Receptor (non-selective) CEREP ligand profiling. The following applies: Compound concentration 10.0 uM.
Data set [23] addresses Neuromedin-K receptor (Homo sapiens) (UniProt P29371). As to the kind of experiment: NK3 tachykinin receptor (h) CEREP ligand profiling. The conditions noted are these: Compound concentration 10.0 uM.
For data set [24], the target named is Vasopressin V1a receptor (Homo sapiens) (UniProt P37288). As to the kind of experiment: Vasopresine V1a receptor (h) CEREP ligand profiling. The conditions noted are these: Compound concentration 10.0 uM.
In data set [25] the target is Galanin receptor (Homo sapiens) (UniProt O60755+O43603+P47211). As to the kind of experiment: Galanin receptor (h) CEREP ligand profiling. It counts as protein assay. The following applies: Compound concentration 10.0 uM.
The target in data set [26] is Voltage-gated (volt-dependent) potassium channel (Homo sapiens, UniProt O43525+O43526+O95259+P16389+P17658+P22001+P22459+P22460+P48547+P51787+P56696+Q03721+Q09470+Q12809+Q14003+Q14721+Q16322+Q6PIU1+Q8NCM2+Q8TAE7+Q8TDN1+Q8TDN2+Q92953+Q96KK3+Q96L42+Q96PR1+Q96RP8+Q9BQ31+Q9H252+Q9H3M0+Q9NR82+Q9NS40+Q9NSA2+Q9NZV8+Q9UIX4+Q9UJ96+Q9UK17+Q9ULD8+Q9ULS6+Q9UQ05). Description: K+ channel (volt-dependent) CEREP ligand profiling. It counts as protein assay. The following applies: compound concentration 10 uM.

Data set [27] can be described thus: Cl- ionophore CEREP ligand profiling. The conditions noted are these: Compound concentration 10.0 uM.
The target in data set [28] is Delta-type opioid receptor (Homo sapiens) (UniProt P41143). As to the kind of experiment: delta-Opioid receptor (h) CEREP ligand profiling. The conditions noted are these: Compound concentration 10.0 uM.
The target in data set [29] is Translocator protein (Rattus norvegicus) (UniProt P16257). As to the kind of experiment: Benzodiazepine (peripheral) CEREP ligand profiling. The following applies: Compound concentration 10.0 uM.
Data set [30] concerns the target 5-hydroxytryptamine receptor 1B (Homo sapiens) (UniProt P28222). Description: 5-Hydroxytryptamine1B CEREP ligand profiling. The conditions noted are these: Compound concentration 10.0 uM.
The target of data set [31] is 5-hydroxytryptamine receptor 5A (Homo sapiens) (UniProt P47898). Description: 5-Hydroxytryptamine5A (h) CEREP ligand profiling. The conditions noted are these: Compound concentration 10.0 uM.
Data set [32] addresses Neuropeptide Y receptor type 1 (Homo sapiens) (UniProt P25929). Description: Y1 receptor CEREP ligand profiling. The following applies: Compound concentration 10.0 uM.

Sequence of Sodium-dependent noradrenaline transporter (Homo sapiens) (P23975 whole entry): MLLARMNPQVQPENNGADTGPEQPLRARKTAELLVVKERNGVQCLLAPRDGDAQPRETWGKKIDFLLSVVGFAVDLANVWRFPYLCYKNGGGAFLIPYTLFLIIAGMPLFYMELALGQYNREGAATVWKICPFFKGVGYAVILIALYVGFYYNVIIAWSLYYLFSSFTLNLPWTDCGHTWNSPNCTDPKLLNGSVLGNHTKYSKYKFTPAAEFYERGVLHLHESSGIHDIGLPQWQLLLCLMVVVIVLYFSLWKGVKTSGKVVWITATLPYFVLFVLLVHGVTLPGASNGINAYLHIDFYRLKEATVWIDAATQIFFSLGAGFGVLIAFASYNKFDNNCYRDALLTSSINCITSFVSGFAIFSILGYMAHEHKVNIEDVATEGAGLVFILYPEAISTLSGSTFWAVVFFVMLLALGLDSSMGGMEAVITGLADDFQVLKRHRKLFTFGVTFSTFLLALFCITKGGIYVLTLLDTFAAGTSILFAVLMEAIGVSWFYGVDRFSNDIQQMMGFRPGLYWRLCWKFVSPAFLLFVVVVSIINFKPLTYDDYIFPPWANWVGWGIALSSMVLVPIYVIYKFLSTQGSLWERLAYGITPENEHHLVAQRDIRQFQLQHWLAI
Sequence of Galanin receptor (Homo sapiens) (O43603 whole entry, looked up): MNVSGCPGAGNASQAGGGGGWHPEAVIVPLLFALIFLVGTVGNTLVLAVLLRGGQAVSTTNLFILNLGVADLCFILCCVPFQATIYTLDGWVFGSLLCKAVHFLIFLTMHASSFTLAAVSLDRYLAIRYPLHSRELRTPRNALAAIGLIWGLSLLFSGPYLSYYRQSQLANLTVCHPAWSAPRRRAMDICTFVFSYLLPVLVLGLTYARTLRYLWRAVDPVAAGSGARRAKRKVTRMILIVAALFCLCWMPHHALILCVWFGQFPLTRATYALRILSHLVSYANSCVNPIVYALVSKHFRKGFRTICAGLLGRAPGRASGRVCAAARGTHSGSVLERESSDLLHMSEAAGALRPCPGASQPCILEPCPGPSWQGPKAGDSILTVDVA
Sequence of Galanin receptor (Homo sapiens) (O60755 whole entry, looked up): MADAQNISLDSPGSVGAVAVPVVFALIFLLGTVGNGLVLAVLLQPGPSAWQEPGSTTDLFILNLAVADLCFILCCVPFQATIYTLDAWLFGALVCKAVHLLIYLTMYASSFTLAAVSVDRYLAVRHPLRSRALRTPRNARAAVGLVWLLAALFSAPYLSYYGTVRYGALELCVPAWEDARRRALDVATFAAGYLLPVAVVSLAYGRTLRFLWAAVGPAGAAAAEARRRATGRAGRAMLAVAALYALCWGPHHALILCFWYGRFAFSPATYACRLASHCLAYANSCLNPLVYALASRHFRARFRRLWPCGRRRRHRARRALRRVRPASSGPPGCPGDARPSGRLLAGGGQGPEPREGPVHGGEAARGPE
Sequence of Galanin receptor (Homo sapiens) (P47211 whole entry, looked up): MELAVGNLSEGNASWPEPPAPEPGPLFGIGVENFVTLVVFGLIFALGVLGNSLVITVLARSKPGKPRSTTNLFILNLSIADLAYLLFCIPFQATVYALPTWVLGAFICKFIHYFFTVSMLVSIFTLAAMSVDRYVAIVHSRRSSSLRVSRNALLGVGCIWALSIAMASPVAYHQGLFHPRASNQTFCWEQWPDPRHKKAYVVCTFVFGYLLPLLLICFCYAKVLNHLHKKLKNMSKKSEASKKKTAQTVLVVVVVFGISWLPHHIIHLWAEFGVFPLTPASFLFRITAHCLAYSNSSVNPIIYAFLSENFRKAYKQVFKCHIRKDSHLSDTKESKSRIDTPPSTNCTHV
Sequence of Beta-1 adrenergic receptor (Homo sapiens) (P08588 whole entry, looked up): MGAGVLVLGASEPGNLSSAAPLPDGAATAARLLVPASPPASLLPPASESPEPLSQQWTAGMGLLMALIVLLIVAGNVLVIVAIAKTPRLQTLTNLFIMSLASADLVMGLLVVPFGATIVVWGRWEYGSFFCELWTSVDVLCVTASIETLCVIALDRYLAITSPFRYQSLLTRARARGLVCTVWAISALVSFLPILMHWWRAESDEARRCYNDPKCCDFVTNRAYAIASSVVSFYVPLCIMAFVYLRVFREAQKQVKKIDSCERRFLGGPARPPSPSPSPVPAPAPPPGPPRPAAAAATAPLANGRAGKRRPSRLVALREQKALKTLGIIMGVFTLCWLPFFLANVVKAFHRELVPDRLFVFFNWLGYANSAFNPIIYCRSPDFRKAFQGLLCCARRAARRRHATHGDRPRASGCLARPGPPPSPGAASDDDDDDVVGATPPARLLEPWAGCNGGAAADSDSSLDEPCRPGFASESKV
Sequence of 5-hydroxytryptamine receptor 1B (Homo sapiens) (P28222 whole entry): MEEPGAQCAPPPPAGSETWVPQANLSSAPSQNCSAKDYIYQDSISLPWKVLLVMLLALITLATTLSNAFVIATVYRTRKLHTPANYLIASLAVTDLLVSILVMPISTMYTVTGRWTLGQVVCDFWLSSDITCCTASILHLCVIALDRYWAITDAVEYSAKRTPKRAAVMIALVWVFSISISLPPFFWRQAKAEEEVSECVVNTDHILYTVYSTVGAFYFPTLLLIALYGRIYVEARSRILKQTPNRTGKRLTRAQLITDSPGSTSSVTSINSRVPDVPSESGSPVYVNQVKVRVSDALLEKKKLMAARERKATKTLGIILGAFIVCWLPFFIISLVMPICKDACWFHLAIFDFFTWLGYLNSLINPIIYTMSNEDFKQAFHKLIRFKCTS
Sequence of Histamine H2 receptor (Homo sapiens) (P25021 whole entry): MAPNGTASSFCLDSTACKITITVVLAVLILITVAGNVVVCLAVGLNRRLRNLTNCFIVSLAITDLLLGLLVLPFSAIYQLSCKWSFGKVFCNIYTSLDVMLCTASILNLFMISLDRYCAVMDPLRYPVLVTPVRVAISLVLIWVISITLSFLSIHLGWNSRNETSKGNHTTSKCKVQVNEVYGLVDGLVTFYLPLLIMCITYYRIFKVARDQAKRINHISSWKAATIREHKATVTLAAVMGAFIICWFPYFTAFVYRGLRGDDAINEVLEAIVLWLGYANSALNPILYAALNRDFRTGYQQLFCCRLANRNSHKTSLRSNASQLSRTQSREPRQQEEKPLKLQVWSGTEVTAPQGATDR
Sequence of Type-2 angiotensin II receptor (Homo sapiens) (P50052 whole entry): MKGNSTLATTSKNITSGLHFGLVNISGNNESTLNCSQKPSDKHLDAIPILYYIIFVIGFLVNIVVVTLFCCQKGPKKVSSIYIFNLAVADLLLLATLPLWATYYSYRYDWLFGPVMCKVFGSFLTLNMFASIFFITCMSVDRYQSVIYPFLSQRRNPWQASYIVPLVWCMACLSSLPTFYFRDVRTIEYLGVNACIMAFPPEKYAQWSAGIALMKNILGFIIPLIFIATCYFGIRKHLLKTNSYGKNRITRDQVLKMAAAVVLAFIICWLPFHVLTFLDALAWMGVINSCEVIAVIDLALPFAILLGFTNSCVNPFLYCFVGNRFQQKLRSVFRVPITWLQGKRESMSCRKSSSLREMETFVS
Sequence of Neuromedin-K receptor (Homo sapiens) (P29371 whole entry): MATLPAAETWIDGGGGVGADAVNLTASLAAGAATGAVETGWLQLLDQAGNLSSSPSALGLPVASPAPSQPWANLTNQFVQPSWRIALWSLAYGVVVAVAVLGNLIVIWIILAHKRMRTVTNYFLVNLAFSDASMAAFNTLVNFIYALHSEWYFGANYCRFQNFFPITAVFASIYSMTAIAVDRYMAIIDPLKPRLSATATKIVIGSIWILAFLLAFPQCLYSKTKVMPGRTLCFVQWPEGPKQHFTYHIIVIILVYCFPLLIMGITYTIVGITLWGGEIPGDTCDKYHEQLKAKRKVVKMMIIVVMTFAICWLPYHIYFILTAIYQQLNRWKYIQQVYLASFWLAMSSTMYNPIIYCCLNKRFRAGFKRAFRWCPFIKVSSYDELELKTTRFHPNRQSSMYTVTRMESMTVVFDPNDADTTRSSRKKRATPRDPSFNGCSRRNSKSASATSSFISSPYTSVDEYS
Sequence of Sigma non-opioid intracellular receptor 1 (Q99720 whole entry): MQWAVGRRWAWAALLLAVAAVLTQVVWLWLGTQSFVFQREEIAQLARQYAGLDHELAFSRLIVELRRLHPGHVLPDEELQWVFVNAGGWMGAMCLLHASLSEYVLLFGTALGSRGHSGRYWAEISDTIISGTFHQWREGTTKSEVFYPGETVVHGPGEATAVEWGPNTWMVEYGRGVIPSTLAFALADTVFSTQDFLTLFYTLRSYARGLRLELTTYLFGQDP
Sequence of Serine/threonine-protein kinase DCLK1 (O15075 whole entry): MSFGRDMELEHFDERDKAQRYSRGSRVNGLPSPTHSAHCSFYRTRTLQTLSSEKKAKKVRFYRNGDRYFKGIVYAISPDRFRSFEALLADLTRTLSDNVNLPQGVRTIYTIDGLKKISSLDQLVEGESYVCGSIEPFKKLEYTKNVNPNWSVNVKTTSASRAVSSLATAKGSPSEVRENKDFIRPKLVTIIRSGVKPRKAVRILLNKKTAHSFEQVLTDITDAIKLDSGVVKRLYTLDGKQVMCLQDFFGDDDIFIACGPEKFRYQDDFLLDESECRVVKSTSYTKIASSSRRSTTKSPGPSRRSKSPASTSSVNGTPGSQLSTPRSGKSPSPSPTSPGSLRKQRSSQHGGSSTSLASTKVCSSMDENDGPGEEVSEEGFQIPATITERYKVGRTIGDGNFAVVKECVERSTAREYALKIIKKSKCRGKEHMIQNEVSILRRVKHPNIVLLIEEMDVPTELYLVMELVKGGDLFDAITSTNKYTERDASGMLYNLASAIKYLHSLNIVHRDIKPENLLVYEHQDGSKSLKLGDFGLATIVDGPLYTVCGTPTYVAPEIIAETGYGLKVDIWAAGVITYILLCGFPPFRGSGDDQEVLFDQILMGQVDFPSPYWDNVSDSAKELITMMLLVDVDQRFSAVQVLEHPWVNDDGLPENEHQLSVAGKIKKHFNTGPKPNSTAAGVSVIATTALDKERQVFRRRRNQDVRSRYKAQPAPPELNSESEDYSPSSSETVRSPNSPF
Sequence of Translocator protein (Rattus norvegicus) (P16257 whole entry, looked up): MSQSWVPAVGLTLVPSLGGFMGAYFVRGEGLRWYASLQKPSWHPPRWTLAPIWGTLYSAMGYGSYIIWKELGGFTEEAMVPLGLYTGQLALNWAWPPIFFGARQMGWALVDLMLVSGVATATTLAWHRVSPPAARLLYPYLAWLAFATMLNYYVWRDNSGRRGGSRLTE

Broadly, the inhibition is the drop in the measured response relative to a control, in per cent. `CCCCN(CCCC)C(=O)CN1C[C@@H](c2cc(OC)c3c(c2)OCO3)[C@H](C(=O)O)[C@H]1CC(C)(C)CCC` [A-545]: the inhibition in [1] is 38.5%; in data set [2], 19.1%; in data set [3] it was -3.72%.
A word on the Kd: it is the constant that tells how readily two partners part at equilibrium. A low value points to higher affinity. For the compound `CCCCN(CCCC)C(=O)CN1C[C@H](c2cc(OC)c3c(c2)OCO3)[C@@H](C(=O)O)[C@@H]1CC(C)(C)CCC` [ABT-546], the inhibition in data set [4], in [5], in data set [6], in data set [7], in data set [8] and in data set [10] was less than 10% throughout. Further, the inhibition in data set [11] was 98%; in data set [12], less than 10%; in data set [13], less than 10%; in [14], less than 10%; in data set [15] it was less than 10%; in data set [16] it was 11%. Besides, the inhibition in [17], in data set [18], in data set [19], in data set [20], in data set [21] and in data set [22] was less than 10% each time. Moreover, the inhibition in data set [23] was less than 10%; in [24], less than 10%; in data set [25], less than 10%; in data set [27], 61%; in data set [28] it was 62%; in data set [29], less than 10%. Moreover, the inhibition in data set [30], in data set [31] and in [32] was less than 10% throughout. Moreover, the dissociation constant (Kd) in [9] is on record as > 10 µM (not active). In data set [26], the inhibition at 10 µM is recorded as < 10% (not active).
